Tests used:
Assay in all cases: Kinase panel
Format in all cases: biochemical
Details in all cases: read-out: % Residual Activity
LOK(h) = target: T1, LOK(h) (Homo sapiens, UniProt O94804)
T1 construct: purchased Eurofins (KinaseProfiler)
Procedure, shortened: (§1)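 Radiometric kinase assay, ATP at Km for each enzyme; IC50 → Ki via Cheng–Prusoff. Part of a kinome-wide selectivity screen of rilpivirine.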

PAK3(h) = target: T2, PAK3(h) (Homo sapiens, UniProt O75914)
T2 construct: purchased Eurofins (KinaseProfiler)
Procedure, shortened: as §1

CK1γ3(h) = target: T3, CK1γ3(h) (Homo sapiens, UniProt Q9Y6M4)
T3 construct: purchased Eurofins (KinaseProfiler)
Procedure, shortened: as §1

ErbB4(h) = target: T4, ErbB4(h) (Homo sapiens, UniProt Q15303)
T4 construct: purchased Eurofins (KinaseProfiler)
Procedure, shortened: as §1

CDK14/cyclinY(h) = target: T5, CDK14/cyclinY(h) (Homo sapiens, UniProt O94921)
T5 construct: purchased Eurofins (KinaseProfiler)
Procedure, shortened: as §1

JNK2α2(h) = target: T6, JNK2α2(h) (Homo sapiens, UniProt P45984)
T6 construct: purchased Eurofins (KinaseProfiler)
Procedure, shortened: as §1

PKG1β(h) = target: T7, PKG1β(h) (Homo sapiens, UniProt Q13976)
T7 construct: purchased Eurofins (KinaseProfiler)
Procedure, shortened: as §1

PIP4K2a(h) = PIP4K2a(h) (Homo sapiens, UniProt P48426)
Procedure, shortened: as §1

GRK5(h) = target: T8, GRK5(h) (Homo sapiens, UniProt P34947)
T8 construct: purchased Eurofins (KinaseProfiler)
Procedure, shortened: as §1

DRAK1(h) = target: T9, DRAK1(h) (Homo sapiens, UniProt Q9UEE5)
T9 construct: purchased Eurofins (KinaseProfiler)
Procedure, shortened: as §1

SAPK2a(h) = target: T10, SAPK2a(h) (Homo sapiens, UniProt Q16539)
T10 construct: purchased Eurofins (KinaseProfiler)
Procedure, shortened: as §1

[1] = target: PI3 Kinase (p110a(E542K)/p85a)(h) (Homo sapiens, UniProt P42336, E542K)
Procedure, shortened: as §1

PAR-1Bα(h) = target: T11, PAR-1Bα(h) (Homo sapiens, UniProt Q7KZI7)
T11 construct: purchased Eurofins (KinaseProfiler)
Procedure, shortened: as §1

PKG1α(h) = target: T12, PKG1α(h) (Homo sapiens, UniProt Q13976)
T12 construct: purchased Eurofins (KinaseProfiler)
Procedure, shortened: as §1

TTBK2(h) = target: T13, TTBK2(h) (Homo sapiens, UniProt Q6IQ55)
T13 construct: purchased Eurofins (KinaseProfiler)
Procedure, shortened: as §1

ULK1(h) = target: T14, ULK1(h) (Homo sapiens, UniProt O75385)
T14 construct: purchased Eurofins (KinaseProfiler)
Procedure, shortened: as §1

[2] = target: PI3 Kinase (p110a/p85a)(h) (Homo sapiens, UniProt P42336)
Procedure, shortened: as §1

PAK5(h) = target: T15, PAK5(h) (Homo sapiens, UniProt Q9P286)
T15 construct: purchased Eurofins (KinaseProfiler)
Procedure, shortened: as §1

Abl(T315I)(h) = target: T16, Abl(T315I)(h) (Homo sapiens, UniProt P00519, T315I)
T16 construct: purchased Eurofins (KinaseProfiler)
Procedure, shortened: as §1

EGFR(h) = target: T17, EGFR(h) (Homo sapiens, UniProt P00533)
T17 construct: purchased Eurofins (KinaseProfiler)
Procedure, shortened: as §1

MAP4K3(h) = target: T18, MAP4K3(h) (Homo sapiens, UniProt Q8IVH8)
T18 construct: purchased Eurofins (KinaseProfiler)
Procedure, shortened: as §1

[3] = target: T19, PI3 Kinase (p110a(E545K)/p85a)(m) (Mus musculus, UniProt P42337, E545K)
T19 construct: purchased Eurofins (KinaseProfiler)
Procedure, shortened: as §1

MKK6(h) = target: T20, MKK6(h) (Homo sapiens, UniProt P52564)
T20 construct: purchased Eurofins (KinaseProfiler)
Procedure, shortened: as §1

JAK2(h) = target: T21, JAK2(h) (Homo sapiens, UniProt O60674)
T21 construct: purchased Eurofins (KinaseProfiler)
Procedure, shortened: as §1

PAK1(h) = target: T22, PAK1(h) (Homo sapiens, UniProt Q13153)
T22 construct: purchased Eurofins (KinaseProfiler)
Procedure, shortened: as §1

Flt3(D835Y)(h) = target: T23, Flt3(D835Y)(h) (Homo sapiens, UniProt P36888, D835Y)
T23 construct: purchased Eurofins (KinaseProfiler)
Procedure, shortened: as §1

KDR(h) = target: T24, KDR(h) (Homo sapiens, UniProt P35968)
T24 construct: purchased Eurofins (KinaseProfiler)
Procedure, shortened: as §1

EphA5(h) = target: T25, EphA5(h) (Homo sapiens, UniProt P54756)
T25 construct: purchased Eurofins (KinaseProfiler)
Procedure, shortened: as §1

EGFR(L858R)(h) = target: T26, EGFR(L858R)(h) (Homo sapiens, UniProt P00533, L858R)
T26 construct: purchased Eurofins (KinaseProfiler)
Procedure, shortened: as §1

Abl(Y253F)(h) = target: T27, Abl(Y253F)(h) (Homo sapiens, UniProt P00519, Y253F)
T27 construct: purchased Eurofins (KinaseProfiler)
Procedure, shortened: as §1

ULK2(h) = target: T28, ULK2(h) (Homo sapiens, UniProt Q8IYT8)
T28 construct: purchased Eurofins (KinaseProfiler)
Procedure, shortened: as §1

CDK17/cyclinY(h) = target: T29, CDK17/cyclinY(h) (Homo sapiens, UniProt Q00537)
T29 construct: purchased Eurofins (KinaseProfiler)
Procedure, shortened: as §1

Txk(h) = target: T30, Txk(h) (Homo sapiens, UniProt P42681)
T30 construct: purchased Eurofins (KinaseProfiler)
Procedure, shortened: as §1

Mnk2(h) = target: T31, Mnk2(h) (Homo sapiens, UniProt Q9HBH9)
T31 construct: purchased Eurofins (KinaseProfiler)
Procedure, shortened: as §1

TAO3(h) = target: T32, TAO3(h) (Homo sapiens, UniProt Q9H2K8)
T32 construct: purchased Eurofins (KinaseProfiler)
Procedure, shortened: as §1

Plk4(h) = target: T33, Plk4(h) (Homo sapiens, UniProt O00444)
T33 construct: purchased Eurofins (KinaseProfiler)
Procedure, shortened: as §1

PASK(h) = target: T34, PASK(h) (Homo sapiens, UniProt Q96RG2)
T34 construct: purchased Eurofins (KinaseProfiler)
Procedure, shortened: as §1

Fms(h) = target: T35, Fms(h) (Homo sapiens, UniProt P07333)
T35 construct: purchased Eurofins (KinaseProfiler)
Procedure, shortened: as §1

T6 sequence (P45984 whole entry): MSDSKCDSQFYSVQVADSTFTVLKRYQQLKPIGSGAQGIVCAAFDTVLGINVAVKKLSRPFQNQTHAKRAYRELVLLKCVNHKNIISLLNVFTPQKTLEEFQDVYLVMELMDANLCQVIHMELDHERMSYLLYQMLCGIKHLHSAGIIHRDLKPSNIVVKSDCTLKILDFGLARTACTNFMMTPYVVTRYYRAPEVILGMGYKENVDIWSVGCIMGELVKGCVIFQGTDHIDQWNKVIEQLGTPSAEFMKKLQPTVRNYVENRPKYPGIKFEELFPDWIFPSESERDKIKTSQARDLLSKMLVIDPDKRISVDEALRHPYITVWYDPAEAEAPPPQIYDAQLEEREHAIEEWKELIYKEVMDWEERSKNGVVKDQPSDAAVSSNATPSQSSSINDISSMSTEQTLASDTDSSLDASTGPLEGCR
T34 sequence (Q96RG2 whole entry): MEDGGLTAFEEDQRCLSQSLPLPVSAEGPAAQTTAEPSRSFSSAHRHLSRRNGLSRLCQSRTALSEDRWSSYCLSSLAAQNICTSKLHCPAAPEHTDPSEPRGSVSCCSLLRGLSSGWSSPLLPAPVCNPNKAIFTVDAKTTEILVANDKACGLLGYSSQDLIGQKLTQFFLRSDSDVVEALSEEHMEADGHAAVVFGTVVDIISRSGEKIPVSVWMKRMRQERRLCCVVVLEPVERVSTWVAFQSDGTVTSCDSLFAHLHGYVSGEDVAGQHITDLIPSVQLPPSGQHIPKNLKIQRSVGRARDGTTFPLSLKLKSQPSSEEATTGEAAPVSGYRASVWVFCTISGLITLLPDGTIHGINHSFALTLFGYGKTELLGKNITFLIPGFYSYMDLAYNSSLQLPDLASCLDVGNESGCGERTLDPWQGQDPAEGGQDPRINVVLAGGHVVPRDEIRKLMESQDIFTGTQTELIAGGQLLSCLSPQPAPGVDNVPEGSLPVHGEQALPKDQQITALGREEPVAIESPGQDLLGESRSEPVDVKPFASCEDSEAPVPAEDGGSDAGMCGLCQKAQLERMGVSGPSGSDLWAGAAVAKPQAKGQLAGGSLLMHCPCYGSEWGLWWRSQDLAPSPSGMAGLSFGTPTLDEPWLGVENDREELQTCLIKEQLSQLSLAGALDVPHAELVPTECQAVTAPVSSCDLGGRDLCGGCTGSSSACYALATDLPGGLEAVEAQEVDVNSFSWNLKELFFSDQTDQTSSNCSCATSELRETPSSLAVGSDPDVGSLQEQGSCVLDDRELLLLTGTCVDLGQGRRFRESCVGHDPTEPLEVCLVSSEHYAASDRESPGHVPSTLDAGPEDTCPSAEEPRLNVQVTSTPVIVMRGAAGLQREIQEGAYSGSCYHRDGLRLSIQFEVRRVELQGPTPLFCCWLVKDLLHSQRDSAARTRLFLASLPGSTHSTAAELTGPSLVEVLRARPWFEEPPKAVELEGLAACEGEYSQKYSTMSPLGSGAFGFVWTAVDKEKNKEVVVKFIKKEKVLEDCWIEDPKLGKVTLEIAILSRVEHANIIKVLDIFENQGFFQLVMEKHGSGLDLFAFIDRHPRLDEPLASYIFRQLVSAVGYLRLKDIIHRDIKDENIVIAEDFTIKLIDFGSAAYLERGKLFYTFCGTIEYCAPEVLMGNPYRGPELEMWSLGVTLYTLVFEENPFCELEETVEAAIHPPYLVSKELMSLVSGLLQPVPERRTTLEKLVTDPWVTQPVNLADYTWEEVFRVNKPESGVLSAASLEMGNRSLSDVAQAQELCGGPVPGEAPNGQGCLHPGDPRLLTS
T31 sequence (Q9HBH9 whole entry): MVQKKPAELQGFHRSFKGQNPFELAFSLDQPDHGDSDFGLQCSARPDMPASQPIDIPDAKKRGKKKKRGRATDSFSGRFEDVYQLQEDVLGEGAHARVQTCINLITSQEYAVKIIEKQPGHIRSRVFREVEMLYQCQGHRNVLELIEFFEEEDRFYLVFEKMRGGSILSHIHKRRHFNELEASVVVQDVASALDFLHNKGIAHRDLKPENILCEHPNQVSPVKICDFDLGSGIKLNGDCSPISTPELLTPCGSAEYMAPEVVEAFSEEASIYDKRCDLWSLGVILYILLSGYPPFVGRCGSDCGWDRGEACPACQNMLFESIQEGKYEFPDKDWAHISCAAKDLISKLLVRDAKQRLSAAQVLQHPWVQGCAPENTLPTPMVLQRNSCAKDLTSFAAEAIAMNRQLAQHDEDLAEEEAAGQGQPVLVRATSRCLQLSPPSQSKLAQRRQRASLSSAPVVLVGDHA
T8 sequence (P34947 whole entry): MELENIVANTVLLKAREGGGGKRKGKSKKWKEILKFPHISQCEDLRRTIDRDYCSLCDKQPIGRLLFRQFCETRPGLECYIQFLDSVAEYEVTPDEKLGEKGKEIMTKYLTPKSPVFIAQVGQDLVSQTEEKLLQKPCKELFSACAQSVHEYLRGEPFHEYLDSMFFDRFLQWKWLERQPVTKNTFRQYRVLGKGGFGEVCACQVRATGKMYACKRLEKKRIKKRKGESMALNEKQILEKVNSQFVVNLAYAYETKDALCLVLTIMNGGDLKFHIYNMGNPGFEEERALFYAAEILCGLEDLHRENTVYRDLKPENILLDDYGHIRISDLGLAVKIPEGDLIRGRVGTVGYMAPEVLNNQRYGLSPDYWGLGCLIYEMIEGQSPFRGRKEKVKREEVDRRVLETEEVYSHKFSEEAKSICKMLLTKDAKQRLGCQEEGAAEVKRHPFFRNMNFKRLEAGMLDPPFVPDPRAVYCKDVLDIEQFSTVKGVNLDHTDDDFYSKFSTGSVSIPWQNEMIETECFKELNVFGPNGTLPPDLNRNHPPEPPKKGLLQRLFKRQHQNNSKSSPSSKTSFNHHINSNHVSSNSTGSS
T2 sequence (O75914 whole entry): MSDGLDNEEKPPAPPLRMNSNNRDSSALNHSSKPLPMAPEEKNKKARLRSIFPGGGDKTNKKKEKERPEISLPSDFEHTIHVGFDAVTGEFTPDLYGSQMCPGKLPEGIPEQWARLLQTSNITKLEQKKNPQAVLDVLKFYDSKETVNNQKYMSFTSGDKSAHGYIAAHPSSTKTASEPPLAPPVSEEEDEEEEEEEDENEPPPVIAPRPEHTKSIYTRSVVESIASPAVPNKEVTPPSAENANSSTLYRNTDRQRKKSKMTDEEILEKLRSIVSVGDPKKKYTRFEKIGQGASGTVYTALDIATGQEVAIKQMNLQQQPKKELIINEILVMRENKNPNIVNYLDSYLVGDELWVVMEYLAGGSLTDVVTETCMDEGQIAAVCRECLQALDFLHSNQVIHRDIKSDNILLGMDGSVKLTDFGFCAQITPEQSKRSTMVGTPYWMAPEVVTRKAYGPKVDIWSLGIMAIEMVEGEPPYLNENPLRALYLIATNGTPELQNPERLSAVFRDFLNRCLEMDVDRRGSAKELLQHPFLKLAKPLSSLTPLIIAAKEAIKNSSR
T25 sequence (P54756 25-1037): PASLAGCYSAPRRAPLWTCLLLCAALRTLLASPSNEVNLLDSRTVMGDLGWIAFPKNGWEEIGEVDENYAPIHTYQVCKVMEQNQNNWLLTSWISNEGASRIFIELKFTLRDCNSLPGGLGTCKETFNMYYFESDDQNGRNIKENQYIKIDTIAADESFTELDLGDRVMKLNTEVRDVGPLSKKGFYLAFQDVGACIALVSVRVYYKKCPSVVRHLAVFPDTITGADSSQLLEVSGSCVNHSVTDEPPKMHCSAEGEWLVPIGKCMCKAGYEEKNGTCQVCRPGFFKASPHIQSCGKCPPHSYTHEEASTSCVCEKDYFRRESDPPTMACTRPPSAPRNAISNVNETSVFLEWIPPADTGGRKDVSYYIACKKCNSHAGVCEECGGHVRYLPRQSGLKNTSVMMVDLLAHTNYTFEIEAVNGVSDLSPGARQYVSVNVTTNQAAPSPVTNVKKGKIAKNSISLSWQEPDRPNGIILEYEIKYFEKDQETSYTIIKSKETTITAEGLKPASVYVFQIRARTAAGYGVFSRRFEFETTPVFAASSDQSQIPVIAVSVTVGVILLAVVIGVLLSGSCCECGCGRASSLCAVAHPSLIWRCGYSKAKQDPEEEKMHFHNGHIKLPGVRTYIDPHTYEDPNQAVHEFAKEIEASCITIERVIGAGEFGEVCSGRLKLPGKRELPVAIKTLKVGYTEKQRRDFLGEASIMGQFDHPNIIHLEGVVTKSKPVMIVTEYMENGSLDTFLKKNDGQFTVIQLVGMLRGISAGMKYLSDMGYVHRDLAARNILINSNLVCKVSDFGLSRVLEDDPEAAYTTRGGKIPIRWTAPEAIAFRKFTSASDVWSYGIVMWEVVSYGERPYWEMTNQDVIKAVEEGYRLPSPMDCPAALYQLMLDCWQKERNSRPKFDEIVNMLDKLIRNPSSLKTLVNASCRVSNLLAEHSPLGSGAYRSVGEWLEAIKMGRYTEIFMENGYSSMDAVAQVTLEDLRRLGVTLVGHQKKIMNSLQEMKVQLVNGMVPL
T20 sequence (P52564 whole entry): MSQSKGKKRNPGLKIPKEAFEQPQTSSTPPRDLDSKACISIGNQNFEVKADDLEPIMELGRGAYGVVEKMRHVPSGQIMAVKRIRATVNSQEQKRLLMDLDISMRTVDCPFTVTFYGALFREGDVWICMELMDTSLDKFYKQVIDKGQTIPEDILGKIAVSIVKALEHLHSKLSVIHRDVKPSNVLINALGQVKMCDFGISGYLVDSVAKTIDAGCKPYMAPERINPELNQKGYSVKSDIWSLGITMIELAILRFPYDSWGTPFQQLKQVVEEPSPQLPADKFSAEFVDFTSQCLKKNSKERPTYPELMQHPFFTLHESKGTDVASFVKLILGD

SMILES: Cc1cc(/C=C/C#N)cc(C)c1Nc1ccnc(Nc2ccc(C#N)cc2)n1 [rilpivirine, (E)-4-((4-((4-(2-cyanoethenyl)-2,6-dimethylphenyl)amino)pyrimidin-2-yl)amino)benzonitrile]
- remaining activity at 1 µM (LOK(h)): 101%
- remaining activity at 1 µM (PAK3(h)): 86%
- remaining activity at 1 µM (CK1γ3(h)): 107%
- remaining activity at 1 µM (ErbB4(h)): 88%
- remaining activity at 1 µM (CDK14/cyclinY(h)): 91%
- remaining activity at 1 µM (JNK2α2(h)): 85%
- remaining activity at 1 µM (PKG1β(h)): 79%
- remaining activity at 1 µM (PIP4K2a(h)): 103%
- remaining activity at 1 µM (GRK5(h)): 96%
- remaining activity at 1 µM (DRAK1(h)): 76%
- remaining activity at 1 µM (SAPK2a(h)): 84%
- remaining activity at 1 µM [1]: 97%
- remaining activity at 1 µM (PAR-1Bα(h)): 104%
- remaining activity at 1 µM (PKG1α(h)): 88%
- remaining activity at 1 µM (TTBK2(h)): 88%
- remaining activity at 1 µM (ULK1(h)): 85%
- remaining activity at 1 µM [2]: 98%
- remaining activity at 1 µM (PAK5(h)): 91%
- remaining activity at 1 µM (Abl(T315I)(h)): 93%
- remaining activity at 1 µM (EGFR(h)): 111%
- remaining activity at 1 µM (MAP4K3(h)): 91%
- remaining activity at 1 µM [3]: 97%
- remaining activity at 1 µM (MKK6(h)): 94%
- remaining activity at 1 µM (JAK2(h)): 72%
- remaining activity at 1 µM (PAK1(h)): 92%
- remaining activity at 1 µM (Flt3(D835Y)(h)): 94%
- remaining activity at 1 µM (KDR(h)): 85%
- remaining activity at 1 µM (EphA5(h)): 79%
- remaining activity at 1 µM (EGFR(L858R)(h)): 90%
- remaining activity at 1 µM (Abl(Y253F)(h)): 58%
- remaining activity at 1 µM (ULK2(h)): 90%
- remaining activity at 1 µM (CDK17/cyclinY(h)): 78%
- remaining activity at 1 µM (Txk(h)): 79%
- remaining activity at 1 µM (Mnk2(h)): 85%
- remaining activity at 1 µM (TAO3(h)): 65%
- remaining activity at 1 µM (Plk4(h)): 85%
- remaining activity at 1 µM (PASK(h)): 85%
- remaining activity at 1 µM (Fms(h)): 91%

Source: PMC9954146, “Anti-Leukaemic Activity of Rilpivirine Is Mediated by Aurora A Kinase Inhibition” (Cancers, 2023)
